In publication PMC7912796, “Design, Synthesis, Anticancer Activity, and Solid Lipid Nanoparticle Formulation of Indole- and Benzimidazole-Based Compounds as Pro-Apoptotic Agents Targeting Bcl-2 Protein” (Pharmaceuticals, 2021):

What was measured:
BAX gene = assay: RT-PCR apoptotic gene expression; assay type: cell-based, human; conditions: 13 μM, 48 h, MDA-MB-231, vs negative control
Method: (§1) Dissection of the compound’s proapoptotic activity was proceeded through gene expression analysis for key genes, controlling apoptosis pathway, as well as protein level determination. Following 8b treatment for 48 h, alterations within MDA-MB-231/breast cancer cell expression of Bcl-2, Bax, caspase-3, -8, and -9 genes, as well as cytochrome c and class-III β-tubulin proteins levels were determined using real-time polymerase chain reaction (RT-PCR) or ELISA technique, respectively. Typically, Bcl-2, Bax, caspases, and cytochrome c proteins contributes within the regulation of apoptotic signaling. Acting as apoptotic activator (Bax) or inhibitor (Bcl-2), the Bcl-2 family proteins play their significant role in apoptosis. The caspases family are cysteine proteases being classified as either executioners; caspase-3, -6, or -7 or initiators; caspase-8 and -9 [36]. Regrading caspase-8, its activation is proceeded through extrinsic death-receptor dependent apoptotic pathway, while, caspase-9 activation is within the event of intrinsic mitochondrial cytochrome c leakage. Additionally, participation of activated caspase-3 is to be essential for […] activation. Class-III β-tubulin are pure prognostic biomarker within cancer patients being associated with aggressive phenotypic/drug-resistant cancers and part of complicated pro-survival molecular pathway, being triggered via poor nutrient supply and hypoxia.
(§2) Quantitative Real-time PCR was operated on Rotor-Gene Q® PCR system as a reader (Cat.#: 204774; Qiagen^TM, Milan, Italy) via GenElute® RNA extraction/SIGMA PCR kit (Cat.#: REI10; Qiagen^TM, Milan, Italy)^86. Cells were treated with IC50 of 8b for 48 h and total RNA was extracted from the non-treated and treated cells. RNA purity was assessed via Nanodrop® 2000/2000c UV-Vis spectrophotometer (Thermo-Scientific^TM, Bilbao, Spain). Synthesis of cDNA was proceeded using QuantiNova® Reverse Transcription Kit (Cat.#: RTN30; Qiagen^TM, Milan, Italy) and the subsequent PCR tests were conducted via single tubes. Specific forward/reverse primer pairs were selected for investigated (Casp-3, -8, -9, BAX, and Bcl2). Obtained results were expressed within Cycle threshold (Ct) values, while relative quantitation of each measured gene was assessed based on ΔΔCt calculations as represented in Table 5 [79].

Bcl-2 gene = assay: RT-PCR apoptotic gene expression; assay type: cell-based, human; conditions: 13 μM, 48 h, MDA-MB-231, vs negative control
Method: as §1, §2

Caspase-3 gene = assay: RT-PCR apoptotic gene expression; assay type: cell-based, human; conditions: 13 μM, 48 h, MDA-MB-231, vs negative control
Method: as §1, §2

Caspase-8 gene = assay: RT-PCR apoptotic gene expression; assay type: cell-based, human; conditions: 13 μM, 48 h, MDA-MB-231, vs negative control
Method: as §1, §2

Caspase-9 gene = assay: RT-PCR apoptotic gene expression; assay type: cell-based, human; conditions: 13 μM, 48 h, MDA-MB-231, vs negative control
Method: as §1, §2

[1] = system: Bax/Bcl-2 gene expression ratio; assay: RT-PCR Bax/Bcl-2 gene expression ratio; assay type: cell-based, human; conditions: 13 μM, 48 h, MDA-MB-231; control 1
Method: Dissection of the compound’s proapoptotic activity was proceeded through gene expression analysis for key genes, controlling apoptosis pathway, as well as protein level determination. Following 8b treatment for 48 h, alterations within MDA-MB-231/breast cancer cell expression of Bcl-2, Bax, caspase-3, -8, and -9 genes, as well as cytochrome c and class-III β-tubulin proteins levels were determined using real-time polymerase chain reaction (RT-PCR) or ELISA technique, respectively. Typically, Bcl-2, Bax, caspases, and cytochrome c proteins contributes within the regulation of apoptotic signaling. Acting as apoptotic activator (Bax) or inhibitor (Bcl-2), the Bcl-2 family proteins play their significant role in apoptosis. The caspases family are cysteine proteases being classified as either executioners; caspase-3, -6, or -7 or initiators; caspase-8 and -9 [36]. […]
Quantitative Real-time PCR was operated on Rotor-Gene Q® PCR system as a reader (Cat.#: 204774; Qiagen^TM, Milan, Italy) via GenElute® RNA extraction/SIGMA PCR kit (Cat.#: REI10; Qiagen^TM, Milan, Italy)^86. […] RNA purity was assessed via Nanodrop® 2000/2000c UV-Vis spectrophotometer (Thermo-Scientific^TM, Bilbao, Spain). […] Obtained results were expressed within Cycle threshold (Ct) values, while relative quantitation of each measured gene was assessed based on ΔΔCt calculations as represented in Table 5 [79].

[2] = system: MDA-MB-231/breast cancer cells; assay: SRB cytotoxicity assay; assay type: cell-based; conditions: Homo sapiens; MDA-MB-231, 72 h exposure
Method: MDA-MB-231: Breast Cancer cell line was obtained from Nawah^TM Scientific Inc., (Cairo, Egypt). Cells were maintained within DMEM provided by 100 units/mL of penicillin, […], and 10% of heat-inactivated FBS within 5% (v/v) CO2 humidified atmosphere (37 °C). The validity of cell line was evaluated adopting the previously reported approach. Briefly, an accurate volume (100 μL) of cell line suspension (5 × 10^3 cells) was placed in 96-well plates and incubated for 24 h within complete media. Cell line suspensions were then treated with another 100 μL media spiked with various drug concentrations (0.01, 0.1, 1, 10, 100 μM/mL) and kept for 72 h. Then the media were replaced with 150 μL of 10% trichloroacetic acid (TCA) for fixing cells through subsequent 1 h incubation at 4 °C [74]. Following incubation, TCA was removed, and cells were washed via distilled water 5 times. Aliquots of 70 μL SRB solution (0.4% w/v; Cat.# S1402; Sigma-Aldrich^TM, Taufkirchen, Germany) were added and cell were then incubated in dark for 10 min at 25 °C. Plates were subjected to triplicate washing via 1% acetic acid and then permitted to be air-dried overnight. Protein-bound SRB stain was extracted by addition of tris base (150 μL, 10 mM) and the absorbance was measured at 540 nm using FLUOstar-Omega® microplate reader (BMG-Labtech^TM GmbH, Ortenberg, Germany).

Compound: CCCc1ccc(-c2nn(-c3ccccc3)cc2C=NNC(=O)c2cc3ccccc3[nH]2)cc1 [Compound 8b, N′-((1-phenyl-3-(4-propylphenyl)-1H-pyrazol-4-yl)methylene)-1H-indole-2-carbohydrazide]
- BAX gene expression (BAX gene): 3.61 folds
- Bcl-2 gene expression (Bcl-2 gene): 0.165 folds
- Caspase-3 gene expression (Caspase-3 gene): 4.28 folds
- Caspase-8 gene expression (Caspase-8 gene): 1.53 folds
- Caspase-9 gene expression (Caspase-9 gene): 7.65 folds
- Bax/Bcl expression ratio [1]: 21.88
- IC50 [2]: 12.4 ± 0.5 µM
